The target of one test is human leukocyte LAB TSPO (Homo sapiens, UniProt P30536). Kind of test: Ligand binding affinity to human leukocyte LAB TSPO.
In a further test the target is human leukocyte HAB TSPO (Homo sapiens, UniProt P30536, T147A). Kind of test: Ligand binding affinity to human leukocyte HAB TSPO.
The subject of test [1] is human leukocyte HAB and LAB TSPO. Kind of test: Human TSPO genotype sensitivity, Ki in LAB versus HAB leukocytes. Type of test: binding. Conditions: for (LAB Ki)/(HAB Ki): genotype sensitivity, ratio of Ki; for genotype sensitivity in words: LAB versus HAB TSPO.
A further test concerns the target rat brain TSPO (Rattus norvegicus, UniProt P16257). Type of test: binding. Conditions: for LipE: pKi (rat) minus clogD.

Several values for one entry are separate records, joined by “and”; a condition that tells them apart may be missing. Identical values can stand only once.

human leukocyte LAB TSPO, sequence (P30536 whole entry): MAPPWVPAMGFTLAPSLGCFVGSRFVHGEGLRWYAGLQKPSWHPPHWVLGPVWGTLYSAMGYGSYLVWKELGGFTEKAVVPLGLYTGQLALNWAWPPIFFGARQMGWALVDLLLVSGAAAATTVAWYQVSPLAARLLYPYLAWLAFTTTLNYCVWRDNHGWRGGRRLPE
human leukocyte HAB TSPO, sequence (P30536 whole entry T147A): as the sequence (P30536 whole entry) above, with T147A counted along it
rat brain TSPO, sequence (P16257 whole entry): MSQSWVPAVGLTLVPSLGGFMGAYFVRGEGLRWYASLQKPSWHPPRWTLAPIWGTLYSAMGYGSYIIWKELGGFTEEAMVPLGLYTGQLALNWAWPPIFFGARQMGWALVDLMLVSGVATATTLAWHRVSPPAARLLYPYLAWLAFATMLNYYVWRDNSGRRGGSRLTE

Consider `CC(C)CN(C)C(=O)C(C)Cc1cc(-c2ccccc2)nc2ccccc12` (centres unmarked) [10l, N,2-dimethyl-N-(2-methylpropyl)-3-(2-phenylquinolin-4-yl)propanamide], for which the Ki at human leukocyte LAB TSPO came out at 185 ± 81 nM; on human leukocyte HAB TSPO, 6 ± 2 nM; on rat brain TSPO, 5 ± 2 nM. In test [1], the “(LAB Ki)/(HAB Ki)” value was determined as 32 ± 18. The LipE at rat brain TSPO is 3.3 ± 0.1.

The molecule `CC(Oc1ccnc2ccccc12)C(=O)N(C)c1ccccc1` (centres unmarked) [15b, N-methyl-N-phenyl-2-(quinolin-4-yloxy)propanamide] came in with a Ki at human leukocyte LAB TSPO of 66 ± 22 nM. Besides, on human leukocyte HAB TSPO, the “HAB binding affinity in words” value was “low nanomolar” and the Ki was found to be 3.3 ± 0.9 nM. Further, the “(LAB Ki)/(HAB Ki)” value in test [1] worked out at 20 ± 9. In addition, on rat brain TSPO, affinity was put at a Ki of 5.7 ± 0.5 nM, the “rat TSPO affinity in words” value is recorded as “low nanomolar range” and the LipE is 5.29 ± 0.04.

In turn, `CC(Oc1cc(-c2cccnc2)nc2ccccc12)C(=O)N(C)c1ccccc1` (centres unmarked) [22b, N-methyl-N-phenyl-2-{[2-(pyridin-3-yl)quinolin-4-yl]oxy}propanamide] had an inhibitory constant (Ki) at human leukocyte LAB TSPO of 12 ± 3 nM. Further, the Ki on human leukocyte HAB TSPO was determined as 0.9 ± 0.09 nM. Also, the “(LAB Ki)/(HAB Ki)” value in test [1] is recorded as 13 ± 4. For the same molecule, at rat brain TSPO, the affinity corresponds to a Ki of 0.2 ± 0.03 nM, the “rat TSPO affinity in words” value was “subnanomolar” and the LipE was 5.6 ± 0.1.

Turning to `CCC(C)N(C)C(=O)c1cc2ccccc2c(-c2ccccc2Cl)n1` (centres unmarked) [compound 1, 1-(2-chlorophenyl)-N-methyl-N-(1-methylpropyl)-3-isoquinolinecarboxamide, reference compound], the “genotype sensitivity in words” value in test [1] is recorded as “low genotype sensitivity”.

On rat brain TSPO, `CC(Cc1cc(-c2ccccc2)nc2ccccc12)C(=O)N(C)C` (centres unmarked) [10e, N,N,2-trimethyl-3-(2-phenylquinolin-4-yl)propanamide] displayed a Ki of 40 ± 8 nM and a LipE of 2.8 ± 0.1.

For the molecule `CC(Oc1cc(-c2ccccn2)nc2ccccc12)C(=O)N(C)c1ccccc1` (centres unmarked) [22a, N-Methyl-N-phenyl-2-{[2-(pyridin-2-yl)quinolin-4-yl]oxy}propanamide], the Ki amounted to 1.4 ± 0.5 nM on human leukocyte LAB TSPO; 1.4 ± 0.2 nM at human leukocyte HAB TSPO; 1.4 nM in test [1] (read-out: human TSPO genotypes Ki, abstract, one value for the human genotypes); 0.1 ± 0.05 nM at rat brain TSPO. For the same molecule, the “genotype sensitivity in words” value in test [1] is on record as “insensitive”. The “(LAB Ki)/(HAB Ki)” value in test [1] was 1.0 ± 0.4. The molecule also gave a LipE on rat brain TSPO of 5.9 ± 0.2.

At rat brain TSPO, `CCCCCN(C)C(=O)C(C)Cc1cc(-c2ccccc2)nc2ccccc12` (centres unmarked) [10i, N,2-dimethyl-N-pentyl-3-(2-phenylquinolin-4-yl)propanamide] came in with a Ki of 0.6 ± 0.1 nM and a LipE of 2.6 ± 0.1.

As to `CCCN(C)C(=O)C(C)Cc1cc(-c2ccccc2)nc2ccccc12` (centres unmarked) [10g, N,2-dimethyl-3-(2-phenylquinolin-4-yl)-N-propylpropanamide], at rat brain TSPO, the affinity corresponds to a Ki of 1.2 ± 0.4 nM and the LipE came out at 4.2 ± 0.1.

Regarding `CCN(CC)C(=O)[C@H](C)Cc1cc(-c2ccccc2)nc2ccccc12` [(R)-10a, (R)-N,N-Diethyl-2-methyl-3-(2-phenylquinolin-4-yl)propanamide], the affinity on human leukocyte LAB TSPO corresponds to a Ki of 743 ± 190 nM. For the same molecule, at human leukocyte HAB TSPO, the affinity, expressed as Ki, was 10 ± 2 nM and the “fold lower affinity to HAB TSPO than to rat TSPO” value was “about 10 -fold”. In test [1], the “fold lower affinity for LAB TSPO than for HAB TSPO” value is “about 76 -fold” and the “(LAB Ki)/(HAB Ki)” value came out at 76 ± 27. Moreover, at rat brain TSPO, the affinity corresponds to a Ki of 0.9 ± 0.09 nM and the LipE is reported as 4.72 ± 0.04.

Take `CC(Cc1cc(-c2ccccc2)nc2ccccc12)C(=O)N(C)c1ccncc1` (centres unmarked) [10q, N,2-dimethyl-3-(2-phenylquinolin-4-yl)-N-(pyridin-4-yl)propanamide]: on rat brain TSPO, the Ki was found to be 106 ± 24 nM and the LipE is given as 1.7 ± 0.1.

On rat brain TSPO, `CC(Cc1cc(-c2ccc(Cl)cc2)nc2ccccc12)C(=O)N(C)C(C)C` (centres unmarked) [10w, 3-[2-(4-chlorophenyl)quinolin-4-yl)-N,2-dimethyl-N-(propan-2-yl)propanamide] had a Ki of 4 ± 1 nM and a LipE of 3.6 ± 0.1.

At rat brain TSPO, `CCC(Cc1cc(-c2ccccc2)nc2ccccc12)C(=O)N(CC)CC` (centres unmarked) [10c, N,N-diethyl-2-[(2-phenylquinolin-4-yl)methyl]butanamide] yielded a Ki of 14 ± 6 nM and a LipE of 2.6 ± 0.2.

Turning to `CN1CCC(Cc2cc(-c3ccccc3)nc3ccccc23)C1=O` (centres unmarked) [10d, 1-methyl-3-[(2-phenylquinolin-4-yl)methyl]pyrrolidin-2-one], on rat brain TSPO, the Ki turned out to be 53 ± 22 nM and the LipE amounted to 3.6 ± 0.2.

On to `CC(Sc1cc(-c2ccccc2)nc2ccccc12)C(=O)N(C)c1ccccc1` (centres unmarked) [compound 12, N-Methyl-N-phenyl-2-[(2-phenylquinolin-4-yl)sulfanyl]propanamide], for which the values for the Ki on human leukocyte LAB TSPO, at human leukocyte HAB TSPO and at rat brain TSPO were 26 ± 5 nM, 2.5 ± 0.6 nM and 0.39 ± 0.04 nM, respectively. For the same molecule, the “(LAB Ki)/(HAB Ki)” value in test [1] was 10 ± 3. On rat brain TSPO, this molecule displayed a LipE of 4.10 ± 0.05.

With `CC(Cc1cc(-c2ccccc2)nc2ccccc12)C(=O)N(C)c1cccc(F)c1` (centres unmarked) [10s, N-(3-fluorophenyl)-N,2-dimethyl-3-(2-phenylquinolin-4-yl)propanamide], on rat brain TSPO, the affinity corresponds to a Ki of 0.8 ± 0.2 nM and the LipE was 3.5 ± 0.1.

On rat brain TSPO, `CC(Cc1cc(-c2ccccc2)nc2ccccc12)C(=O)N(C)c1ccc(F)cc1` (centres unmarked) [10t, N-(4-fluorophenyl)-N,2-dimethyl-3-(2-phenylquinolin-4-yl)propanamide] showed a Ki of 0.4 ± 0.1 nM and a LipE of 4.1 ± 0.2.

For `CC(Cc1cc(-c2ccccc2)nc2ccccc12)C(=O)N(C)C(C)C` (centres unmarked) [10j, N,2-dimethyl-3-(2-phenylquinolin-4-yl)-N-(propan-2-yl)propanamide], the inhibition constant Ki came out at 973 ± 409 nM on human leukocyte LAB TSPO, 15 ± 2 nM on human leukocyte HAB TSPO and 2.9 ± 0.9 nM on rat brain TSPO. The “(LAB Ki)/(HAB Ki)” value in test [1] was determined as 64 ± 28. Further, the LipE on rat brain TSPO came to 4.3 ± 0.1.

`CC(Nc1cc(-c2ccccc2)nc2ccccc12)C(=O)N(C)c1ccccc1` (centres unmarked) [compound 14, N-Methyl-N-phenyl-2-[(2-phenylquinolin-4-yl)amino]propanamide]: the Ki at human leukocyte LAB TSPO stood at 4 ± 1 nM; at human leukocyte HAB TSPO, 0.44 ± 0.08 nM; on rat brain TSPO, 0.19 ± 0.01 nM. In addition, the “(LAB Ki)/(HAB Ki)” value in test [1] came out at 9 ± 3. Also, at rat brain TSPO, the LipE is recorded as 5.62 ± 0.03.

With `CC(Oc1cc(-c2ccccc2)nc2ccccc12)C(=O)N(C)c1ccccc1` (centres unmarked) [15a, N-Methyl-N-phenyl-2-[(2-phenylquinolin-4-yl)oxy]propanamide], the Ki at human leukocyte LAB TSPO was 1.3 ± 0.2 nM; at human leukocyte HAB TSPO it was 0.5 ± 0.2 nM; at rat brain TSPO, 0.07 ± 0.004 nM. Moreover, the “(LAB Ki)/(HAB Ki)” value in test [1] is 2.5 and 2.5 ± 0.9. In addition, the LipE on rat brain TSPO was found to be 5.42 ± 0.03.

On to `CC(Cc1cc(-c2ccccc2)nc2ccccc12)C(=O)N(C)c1ccccc1` (centres unmarked) [10m, N,2-dimethyl-N-phenyl-3-(2-phenylquinolin-4-yl)propanamide], for which the Ki stood at 53 ± 22 nM on human leukocyte LAB TSPO, 1.9 ± 0.5 nM on human leukocyte HAB TSPO and 0.9 ± 0.2 nM on rat brain TSPO. The “(LAB Ki)/(HAB Ki)” value in test [1] is recorded as 27 ± 14. In addition, the LipE on rat brain TSPO was found to be 3.5 ± 0.1.

Molecule `CC(Oc1ccnc(-c2ccccc2)c1)C(=O)N(C)c1ccccc1` (centres unmarked) [15c, N-methyl-N-phenyl-2-[(2-phenylpyridin-4-yl)oxy]propanamide] returned a Ki on human leukocyte LAB TSPO of 62 ± 11 nM. Also, on human leukocyte HAB TSPO, the “HAB binding affinity in words” value is “low nanomolar” and the Ki turned out to be 2 ± 0.6 nM. The “(LAB Ki)/(HAB Ki)” value in test [1] was 31 ± 11. Moreover, on rat brain TSPO, the Ki came out at 3.3 ± 0.6 nM, the “rat TSPO affinity in words” value is “low nanomolar range” and the LipE was 5.3 ± 0.3.

With `CC(Cc1cc(-c2ccccc2Cl)nc2ccccc12)C(=O)N(C)C(C)C` (centres unmarked) [10u, 3-[2-(2-chlorophenyl)quinolin-4-yl)-N,2-dimethyl-N-(propan-2-yl)propanamide], on rat brain TSPO, the Ki came to 22 ± 6 nM and the LipE stood at 3.2 ± 0.1.

`CCCCN(C)C(=O)C(C)Cc1cc(-c2ccccc2)nc2ccccc12` (centres unmarked) [10h, N-butyl-N,2-dimethyl-3-(2-phenylquinolin-4-yl)propanamide]: the results for the Ki on human leukocyte LAB TSPO, at human leukocyte HAB TSPO and on rat brain TSPO were 89 ± 3 nM, 1 ± 0.6 nM and 0.4 ± 0.2 nM, respectively. Further, the “(LAB Ki)/(HAB Ki)” value in test [1] is 89 ± 50. The same molecule returned a LipE on rat brain TSPO of 3.9 ± 0.2.

Take `CC(Cc1cc(-c2ccccc2)nc2ccccc12)C(=O)N(C)c1cccnc1` (centres unmarked) [10p, N,2-dimethyl-3-(2-phenylquinolin-4-yl)-N-(pyridin-3-yl)propanamide]: at rat brain TSPO, the Ki was 10 ± 3 nM and the LipE is reported as 2.7 ± 0.1.

For `CC(Cc1cc(-c2ccccc2)nc2ccccc12)C(=O)N(C)Cc1ccccc1` (centres unmarked) [10n, N-benzyl-N,2-dimethyl-3-(2-phenylquinolin-4-yl)propanamide], on rat brain TSPO, the Ki was determined as 5 ± 3 nM and the LipE came to 1.8 ± 0.2.

At rat brain TSPO, `CC(Cc1cc(-c2ccccc2)nc2ccccc12)C(=O)N(C)c1ccccc1F` (centres unmarked) [10r, N-(2-fluorophenyl)-N,2-dimethyl-3-(2-phenylquinolin-4-yl)propanamide] came in with a Ki of 0.9 ± 0.2 nM and a LipE of 3.5 ± 0.1.

At rat brain TSPO, `CCN(CC)C(=O)CCc1cc(-c2ccccc2)nc2ccccc12` [10b, N,N-diethyl-3-(2-phenylquinolin-4-yl)propanamide] came in with a Ki of 32 ± 11 nM and a LipE of 2.7 ± 0.2.

On rat brain TSPO, `CCN(CC)C(=O)[C@@H](C)Cc1cc(-c2ccccc2)nc2ccccc12` [(S)-10a, (S)-N,N-Diethyl-2-methyl-3-(2-phenylquinolin-4-yl)propanamide] registered a Ki of 73 ± 36 nM and a LipE of 2.9 ± 0.1.

For `CCN(C)C(=O)C(C)Cc1cc(-c2ccccc2)nc2ccccc12` (centres unmarked) [10f, N-ethyl-N,2-dimethyl-3-(2-phenylquinolin-4-yl)propanamide], on rat brain TSPO, the Ki stood at 9 ± 2 nM and the LipE was 3.8 ± 0.1.

At rat brain TSPO, `CC(Cc1cc(-c2cccc(Cl)c2)nc2ccccc12)C(=O)N(C)C(C)C` (centres unmarked) [10v, 3-[2-(3-chlorophenyl)quinolin-4-yl)-N,2-dimethyl-N-(propan-2-yl)propanamide] registered an inhibition constant (Ki) of 4 ± 1 nM and a LipE of 3.7 ± 0.1.

As a reminder, the Ki is the dissociation constant of the complex between target and ligand, obtained from inhibition or displacement.

The values are drawn from article PMC4216211 (Journal of Medicinal Chemistry, 2014).
